Where “and” joins values, the source holds several entries; their conditions need not be identical. Identical values can stand only once. Entries after “also recorded” stand apart in the source; their conditions may differ. Like-named read-outs stand apart in the source and are kept apart here.
Legend:
[1] = Hunt et al., Bioorg Med Chem Lett. 2012; cited from earlier work
[2] = format: in vivo; details: female rats; for Study day from which body weight reduction became statistically significant: treatment started Day 35
Procedure: On day 35, the rodents were randomized to 4 different interventions and remained on study until day 57. The four intervention groups were: OLZ+vehicle daily by oral gavage; OLZ+2 mg/kg/day miricorilant once daily; OLZ+1 mg/kg miricorilant twice daily; and OLZ+10 mg/kg/day miricorilant once daily. A fifth group, a vehicle-only group (n=12), was included as a control for the entirety of the 57 days.
Starting at week 6, either miricorilant (MIRI, 3 dosing regimens) or vehicle 2 was administered orally. […] The vehicle-only group was included as a control for the 8-week duration of the study. Efficacy was assessed based on body weight, food consumption, mortality, and clinical observations.
The articles were stored refrigerated between dosing.
Body weights were measured and recorded three times weekly during the acclimation period, every other day beginning on Day −1, and prior to termination on Day 57. Food consumption was measured and recorded daily beginning on Day −14. Body weights and food consumption were measured within 2 hours of the initial time on Day −1. Any changes in bodyweight greater than 15 grams (g) and changes in food consumption greater than 5 g were verified. Food jars were weighed twice for precision during food jar changes.

[3] = Procedure: The dose level tested in our Phase 1b trial was 600 mg/day.
A 2-week, single-center, double-blind, randomized, placebo-controlled study was conducted in healthy male subjects age 18-55 years with BMI between 18-25 kg/m^2 and a stable body weight (defined as the Day 1 pre-dose body weight to be within ±2.0% of screening body weight). […] Food was freely available to all subjects during the study. The difference in mean change in absolute body weight after administration of OLZ+PBO compared to OLZ+MIRI was evaluated using a repeated measures model with imputation applied to missing values.
(HOMA2-IR values were calculated from fasted glucose and insulin levels using the HOMA (HOMA2 Model) Calculator® application programming interface for SAS (Oxford University 2013, available at the website www.dtu.ox.ac.uk/homacalculator)).

progesterone receptor = target: T1, progesterone receptor (Homo sapiens, UniProt P06401); details: cited from earlier work
T1 sequence (P06401 1-933): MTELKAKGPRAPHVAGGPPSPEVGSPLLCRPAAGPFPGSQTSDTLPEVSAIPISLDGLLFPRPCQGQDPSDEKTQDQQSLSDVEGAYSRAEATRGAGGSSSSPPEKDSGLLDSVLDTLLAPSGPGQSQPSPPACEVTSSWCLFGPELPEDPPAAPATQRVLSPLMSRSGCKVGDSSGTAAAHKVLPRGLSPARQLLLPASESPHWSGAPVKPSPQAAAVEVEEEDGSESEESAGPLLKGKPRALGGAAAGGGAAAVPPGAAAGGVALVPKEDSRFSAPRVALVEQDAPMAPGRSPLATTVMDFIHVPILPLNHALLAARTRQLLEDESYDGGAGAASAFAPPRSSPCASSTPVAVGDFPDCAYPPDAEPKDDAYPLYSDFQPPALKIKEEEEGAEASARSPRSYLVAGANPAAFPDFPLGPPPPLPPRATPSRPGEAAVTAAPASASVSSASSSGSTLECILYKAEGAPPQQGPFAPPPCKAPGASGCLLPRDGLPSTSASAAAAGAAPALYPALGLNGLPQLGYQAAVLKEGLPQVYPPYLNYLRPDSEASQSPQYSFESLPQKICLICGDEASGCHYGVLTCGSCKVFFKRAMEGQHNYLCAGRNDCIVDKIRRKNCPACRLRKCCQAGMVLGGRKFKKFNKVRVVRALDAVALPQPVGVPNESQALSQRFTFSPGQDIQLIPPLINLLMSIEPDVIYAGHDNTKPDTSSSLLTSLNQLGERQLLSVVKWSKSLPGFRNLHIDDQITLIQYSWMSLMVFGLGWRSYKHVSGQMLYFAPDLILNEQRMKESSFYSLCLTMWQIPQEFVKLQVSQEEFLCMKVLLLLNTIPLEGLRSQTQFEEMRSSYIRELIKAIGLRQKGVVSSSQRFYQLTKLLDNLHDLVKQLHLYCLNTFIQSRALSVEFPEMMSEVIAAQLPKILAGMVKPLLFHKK

[4] = Group 3: OLZ + miricorilant 1 mg/kg/dose BID
[5] = Group 4: OLZ + miricorilant 2 mg/kg/dose QD
[6] = Group 5: OLZ + miricorilant 10 mg/kg/dose QD
[7] = first week of miricorilant treatment with OLZ, P<0.01
[8] = (1 − (A/B)) × 100, MIRI 600 mg/day + OLZ vs placebo + OLZ, healthy male subjects
[9] = healthy male subjects, day not given, listed as miricorilant = olanzapine+miricorilant, listed as olanzapine = olanzapine+placebo
[10] = healthy male subjects, listed as miricorilant = MIRI 600 mg/day + OLZ 10 mg/day, listed as olanzapine = placebo + OLZ 10 mg/day
[11] = healthy male subjects, listed as miricorilant = MIRI 600 mg/day + OLZ, listed as olanzapine = placebo + OLZ 10 mg/day, unit given in Table 1, not in Table 2
[12] = healthy male subjects, listed as miricorilant = olanzapine+miricorilant, listed as olanzapine = olanzapine+placebo
[13] = healthy male subjects, listed as miricorilant = olanzapine+miricorilant, listed as olanzapine = olanzapine+placebo, from Table 2 with Table 1 baselines

In the case of O=c1[nH]c(=O)c(Cc2cccc(C(F)(F)F)c2)c([C@H]2CC[C@H](c3ccccc3)CC2)[nH]1 [miricorilant, (E)-6-(4-Phenylcyclohexyl)-5-(3-trifluoromethylbenzyl)-1H-pyrimidine-2,4-dione], the “Effect on olanzapine-induced weight gain in rats” value [1] is given as “prevent olanzapine-induced weight gain”, the “Study day from which body weight reduction became statistically significant” value ([2]; Group 3: 1 mg/kg/dose BID) is given as 36 and the “Body weight reduction at Day 57 vs olanzapine control Group 2 ([…] g)” value (“Body weight reduction … ([…] g)” below) [2, 4] is given as 13%. The “Least Squares (LS) mean body weight at Day 57” value (shortened to “Least Squares”) [2, 4] was 268 g, the “Group mean body weight at Day 57” value ([2]; Group 3: OLZ + miricorilant 1 mg/kg/dose BID oral, Days 35-57) was 269 g and the “Study day from which body weight reduction became statistically significant” value ([2]; Group 4: 2 mg/kg/dose QD) was 38. The “Body weight reduction … ([…] g)” value [2, 5] was 12%, the “Least Squares” value [2, 5] was 272 g and the “Loss compared with basal body weight (vehicle-only control) at the end of the study” value [2, 5] was “no significant loss; also recorded: no reduction”. The “Group mean body weight at Day 57” value ([2]; Group 4: OLZ + miricorilant 2 mg/kg/dose QD oral, Days 35-57) was 272 g, the “Study day from which body weight reduction became statistically significant” value ([2]; Group 5: 10 mg/kg/dose QD) was 36 and the “Body weight reduction … ([…] g)” value [2, 6] was 17%. The “Least Squares” value [2, 6] was 259 g, the “Group mean body weight at Day 57” value ([2]; Group 5: OLZ + miricorilant 10 mg/kg/dose QD oral, Days 35-57) was 258 g and the “Food consumption by the end of the study” value ([2]; all three miricorilant dose regimens with OLZ) was “returned to vehicle-only levels”. For the same compound, the “Decrease in weight compared to the OLZ+vehicle group” value ([2]; days 35-57, all three miricorilant regimens with OLZ, p<0.05) was 12-17%, the “Food consumption lower compared to olanzapine-only animals” value [2, 7] was 16%-23% and the “Food consumption lower compared to vehicle-only controls” value [2, 7] was 13%-20%. For the same compound, the Mortality ([2]; miricorilant 1 mg/kg BID, 2 or 10 mg/kg QD with OLZ, Days 35-57) was “no mortalities”, the “Effect on olanzapine-induced body weight gains and food consumption increases” value ([2]; oral, all three dose regimens, within first week of treatment (Week 6), maintained) was “completely abrogated” and the “% reduction in OLZ-induced increase: HOMA2-IR, Day 8” value [3, 8] was 38%. For the same compound, the “% reduction in OLZ-induced increase: HOMA2-IR, Day 15” value [3, 8] was 39%, the “% reduction in OLZ-induced increase: body weight, Day 8” value [3, 8] was 25% and the “% reduction in OLZ-induced increase: body weight, Day 15” value [3, 8] was 22%. The “% reduction in OLZ-induced increase: insulin, Day 8” value [3, 8] was 38%, the “% reduction in OLZ-induced increase: insulin, Day 15” value [3, 8] was 39% and the “% reduction in OLZ-induced increase: triglycerides, Day 8” value [3, 8] was 49%. The “% reduction in OLZ-induced increase: triglycerides, Day 15” value [3, 8] was 45%, the “Difference in weight gain between treatment groups on day 15” value ([3]; OLZ+MIRI vs OLZ+PBO, MMRM, P=0.017, 95% CI [−1.94, −0.19], healthy male subjects) was -1.07 kg and the “Difference in weight gain between treatment groups on day 8” value ([3]; OLZ+MIRI vs OLZ+PBO, MMRM, P=0.044, 95% CI [−1.77, −0.02], healthy male subjects) was -0.9 kg. For the same compound, the “Difference in triglyceride increase on day 8” value ([3]; OLZ+MIRI vs OLZ+PBO, P<0.001, healthy male subjects) was -0.53 mmol/L, the “Difference in HOMA2-IR on day 15” value ([3]; OLZ+MIRI vs OLZ+PBO, P=0.007, healthy male subjects) was −0.47 and the “Difference in HOMA2-IR on day 8” value ([3]; OLZ+MIRI vs OLZ+PBO, P=0.012, healthy male subjects) was −0.44. The “Difference in plasma insulin increase on day 8” value ([3]; OLZ+MIRI vs OLZ+PBO, P=0.013, healthy male subjects) was −3.49 mIU/L, the “Difference in triglyceride increase on day 15” value ([3]; OLZ+MIRI vs OLZ+PBO, P=0.057, healthy male subjects) was -0.28 mmol/L and the “HOMA2-IR level relative to baseline” value [3, 9] was “less than 2 fold”. The “Insulin resistance (HOMA2-IR) increase from baseline, percent” value [3, 9] was “about 90%”, the “Body weight increase from baseline on Day 8” value [3, 10] was 2.6 kg and 2.59 kg and the “Body weight increase from baseline on Day 15” value [3, 10] was 3.9 kg and 3.91 kg. The “HOMA2-IR increase from baseline on Day 8” value [3, 10] was 0.71, the “HOMA2-IR increase from baseline on Day 15” value [3, 10] was 0.74 and the “Insulin increase from baseline on Day 8” value [3, 10] was 5.65 mIU/L. The “Insulin increase from baseline on Day 15” value [3, 10] was 5.91 mIU/L, the “Triglycerides increase from baseline on Day 8” value [3, 11] was 0.56 mmol/L and the “Triglycerides increase from baseline on Day 15” value [3, 11] was 0.34 mmol/L. For the same compound, the “Insulin increase from baseline, percent, day 8” value [3, 12] was “about 92%”, the “Insulin increase from baseline, percent, day 15” value [3, 12] was 97% and the “Triglycerides increase from baseline, percent, day 8” value [3, 12] was “about 60%”. For the same compound, the “Triglycerides increase from baseline, percent, day 15” value [3, 12] was 37%, the “Body weight increase from baseline, percent of baseline, day 8” value [3, 13] was “about 3.6%” and the “Body weight increase from baseline, percent of baseline, day 15” value [3, 13] was 5.4%. For the same compound, the “ALT increase from baseline, percent, day 7” value ([3]; human, in vivo) was 152%, the “ALT increase from baseline, percent, day 12” value ([3]; human, in vivo) was 528% and the “AST increase from baseline, percent, day 7” value ([3]; human, in vivo) was 71%. The “AST increase from baseline, percent, day 12” value ([3]; human, in vivo) was 192%, the “Difference in ALT levels between treatment arms on day 12” value ([3]; human, in vivo) was −49.99 IU/L and the “Difference in AST levels between groups on day 12” value ([3]; human, in vivo) was −32.24 IU/L. The “Tolerability of the dose” value ([3]; human, in vivo) was “very well tolerated”, the “Difference in plasma insulin increase on day 15” value ([3]; printed as between PBO and OLZ, P=0.007, healthy male subjects) was 3.74 mIU/L and the “Affinity for the progesterone receptor” value (progesterone receptor) was “without affinity”.

Source: patent US11903945B2, “Methods of treating antipsychotic-induced weight gain with miricorilant” (Corcept Therapeutics Incorporated, priority 2019, dated 2024)
